Reference: BindingDB's records for doi:10.7270/Q2DB806H (University of Pittsburgh, 2007)

Target: T1, Dual specificity protein phosphatase 6 (Rattus norvegicus, UniProt Q64346)
T1 sequence (Q64346 whole entry): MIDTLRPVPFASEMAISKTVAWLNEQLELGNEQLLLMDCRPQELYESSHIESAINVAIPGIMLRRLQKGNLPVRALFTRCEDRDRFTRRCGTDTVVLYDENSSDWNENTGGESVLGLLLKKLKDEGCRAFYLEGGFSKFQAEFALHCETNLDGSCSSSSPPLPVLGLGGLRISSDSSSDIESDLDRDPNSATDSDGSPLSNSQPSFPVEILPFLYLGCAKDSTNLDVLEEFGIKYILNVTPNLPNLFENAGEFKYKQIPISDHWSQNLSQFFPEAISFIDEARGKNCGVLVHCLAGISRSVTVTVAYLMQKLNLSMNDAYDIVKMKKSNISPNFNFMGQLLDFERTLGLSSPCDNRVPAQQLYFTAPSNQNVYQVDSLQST
Experiment: MKP-3 phosphatase inhibitors, dose response, biochemical, probe assessment (AID 673)

| SMILES | IC50 [µM] |
| --- | --- |
| O=C(Nc1ccc2nc(-c3ccco3)c(-c3ccco3)nc2c1)N1CCCCCC1 | > 50 |
| Cc1ccc2c(c1C)NC(C(=O)O)C1CC=CC21 (stereo not drawn) | > 50 |
| O=C(O)C1Nc2c(O)cccc2C2C=CCC12 (stereo not drawn) | > 50 |
| Cn1ncnc2c(=O)n(C)c(=O)nc1-2 | 0.433 |
| [O-]/[N+](=C\c1ccncc1)c1ccccc1 | > 50 |
| COc1cccc2c(C)c(C(=O)O)[nH]c12 | > 50 |
| O=C1C=Cc2ccccc2C1=O [1,2-dihydronaphthalene-1,2-dione] | > 50 |
| CCn1nc(-c2ccccc2)nc2c(=O)n(C)c(=O)nc1-2 [1-Ethyl-6-methyl-3-phenyl-1H-pyrimido[5,4-e][1,2,4]triazine-5,7-dione] | 0.615 |
| [O-]/[N+](=C\c1ccc(OC(F)F)cc1)c1ccccc1 [1-[4-(difluoromethoxy)phenyl]-N-phenylmethanimine oxide] | > 50 |
| CCn1nc(-c2cccs2)nc2c(=O)n(C)c(=O)nc1-2 [1-ethyl-6-methyl-3-thiophen-2-yl-pyrimido[5,4-e][1,2,4]triazine-5,7-dione] | 0.629 |
| O=C1Cc2ccccc2C(=O)N1CCc1ccccc1 [2-(2-phenylethyl)-4H-isoquinoline-1,3-dione] | 19.8 |
| N#Cc1c(N)sc(=S)c2c1CCN(Cc1ccccc1)C2 [3-Amino-7-benzyl-1-thioxo-5,6,7,8-tetrahydro-1H-thiopyrano[3,4-c]pyridine-4-carbonitrile] | 2.74 |
| Cc1ccccc1Nc1cc2ccccc2c(O)n1 [3-[(2-methylphenyl)amino]-2H-isoquinolin-1-one] | 12.1 |
| COc1ccc(Br)cc1C=c1sc2nc(-c3ccco3)nn2c1=O [5-[(5-bromanyl-2-methoxy-phenyl)methylidene]-2-(furan-2-yl)-[1,3]thiazolo[3,2-b][1,2,4]triazol-6-one] | > 50 |
| CC(=O)Nc1cc(OC(C)=O)c2nonc2c1OC(C)=O [Acetic acid 7-acetoxy-5-acetylamino-benzo[1,2,5]oxadiazol-4-yl ester] | > 50 |
| CCOC(=O)C(C(=O)OCC)c1cc(Br)c2noc3c2c1C(=O)c1ccccc1-3 [MLS000038842] | > 50 |
| Oc1nc(Nc2ccccc2)cc2ccccc12 [MLS000043701] | 12.6 |
| O=C1C=Cc2ccccc2/C1=C/NC12CN3CCN(CN(C3)C1)C2 [MLS000071484] | > 50 |
| Cc1c(N=c2c(=O)c3ccccc3c2=O)c(=O)n(-c2ccccc2)n1C [MLS000105950] | 19.8 |
| CCOc1ccc2noc3c2c1C(=O)c1ccccc1-3 [MLS000106837] | > 50 |
| COc1ccc2noc3c2c1C(=O)c1ccccc1-3 [MLS000106874] | > 50 |
| c1ccc(CSc2nnc(-c3ccco3)c(-c3ccco3)n2)cc1 [MLS-0029114.0001] | > 50 |
| Cc1ccc2c(c1)C1C=CCC1C(C(=O)O)N2 (stereo not drawn) [MLS-0067149.0001] | > 50 |
| O=C(NC1(O)C(=O)c2ccccc2C1=O)c1ccccc1 [N-(2-hydroxy-1,3-dioxo-2-indenyl)benzamide] | 48.7 |
| COc1cccc2c1NC(C(=O)O)C1CC=CC21 (stereo not drawn) [SMR000009698] | > 50 |
| O=C(OC1CCCCC1)c1ccc2c(c1)C1C=CCC1C(C(=O)O)N2 (stereo not drawn) [SMR000019385] | > 50 |
| N#Cc1c(N2CCCC2)nc(N)c2c(N)nc(N3CCCC3)cc12 [SMR000061605] | 3.71 |
| Nc1cccc2cnccc12 [isoquinolin-5-amine] | > 50 |
